Assay results published in US20250134952A1, “METHODS FOR IMPROVING THE EFFICACY OF HDAC INHIBITOR THERAPY AND PREDICTING THE RESPONSE TO TREATMENT WITH HDAC INHIBITOR” (INSTITUT NATIONAL DE LA SANTÉ ET DE LA RECHERCHE MÉDICALE, priority 2021, published 2025).

Key:
[1] = system: GAL4UAS responsive luciferase reporter Hela stable cell line; assay: GAL4UAS responsive luciferase reporter assay; type: cell-based; details: for reduction of luciferase activity by Tau4R overexpression: wild-type Tau4R transfected
Procedure: (A) Representative confocal sections of MCF7shctrl and shTau cells untreated or treated with 100 nM TSA for 24 h. […] (B) Quantification of HP1α clusters per nuclei visualized as described previously and realized on three independent experiments. (C) GADD45a and (D) p21 (CDKN1a) expression in MCF7shctrl and shTau cells untreated or treated with 100 nM TSA for 24 h were analyzed by real-time PCR and normalized to RPLO. Results are expressed, relative to the basal activity set to 1, as the mean±SD of three independent assays. (E) Tau tethering prevents adjacent reporter gene activity induced by TSA. GAL4UAS responsive luciferase reporter Hela stable cell line was transfected with GAL4DBD (GAL4) or GAL4DBD-Tau4R and then, 24 h later, treated with TSA (600 nM) for 24 h. The luciferase activity was determined as described in the Materials and Methods. (F) Ectopic Tau4R expression prevents adjacent reporter gene activity induced by TSA. The GAL4UAS responsive luciferase reporter Hela stable cell line was transfected with a plasmid encoding Tau4R for 24 h. Then, cells were treated with an increasing concentration of TSA, as indicated for 24 h. The luciferase activity was determined as described in the Materials and Methods. Data are mean±SD **P<0.01***P<0.001 vs. control.
SH-SY5Y human neuroblastoma cells expressing Tau4R tagged with the streptavidin-binding peptide (SBP) (referred as SH-SY5Y-(SBP)Tau4R) (Chauderlier et al., 2018), SH-SY5Y-Tet-on-Tau4R, Hela cells, MCF7 and MDA-MB-231 were cultured in Dulbecco's Modified Eagle's Medium with 10% fetal bovine serum, 2 mM L-glutamine and 50 U/ml penicillin/streptomycin (Gibco) at 37° C. in 5% CO2 humidified air. Transient and stable transfections experiments were performed using the lipofectamine 3000 reagent (Invitrogen). Transient luciferase assays were performed with the dual-luciferase assay system (Promega). For stable clones, luciferase activities were measured using the luciferase assay system (Promega) and normalized against protein concentration. To isolate stably transfected clones, Hela cells were transfected with the pGL4.31[luc2P/GAL4 UAS/Hygro](referred to as the GAL4UAS stable Hela cell line) and selected with hygromycin (200 μg/ml). Of 6 clones tested for reporter activity, one clone was chosen for further studies. MCF7 and MDA-MB-231 cells were transfected with short hairpin Tau or RNA Ctrl vectors and selected with puromycin ([…]). Clones were isolated and tested for Tau expression.
To directly probe how Tau prevents TSA-induced chromatin remodeling and gene expression, we next used Hela cells as they lack endogenous Tau. First, we generated a stable GAL4UAS-responsive luciferase reporter Hela clone that we subsequently selected for trichostatin-induced luciferase activity. In our preliminary experiments we found the lowest dose of TSA inducing maximal luciferase activity was 600 nM and we used this concentration in the following experiments. In addition, by performing salt extraction on nuclei, we found only Tau4R isoforms were tightly bound to chromatin and could potentially impact directly on chromatin structure (data not shown). We therefore targeted Tau4R to UAS responsive elements by fusing Tau4R to the heterologous DNA-binding domain GAL4 and transfected this plasmid into Hela stable clone. […] We next wondered if this effect was due to the tethering of Tau4R to the promoter or whether this was independent of Tau4R fusion to GAL4. […]

[2] = system: HP1β clusters in Hela cells; assay: GFP-HP1β clusters per nuclei, confocal microscopy; type: cell-based; details: TSA 300 nM, 24 h, control Hela cells
Procedure: (A) Single confocal sections of Hela cells transfected with […], with or without Tau4R or TauP301L and treated 24 h later with the TSA (300 nM) for 24 h. Tau C-terminus antibodies and GFP fluorescence were used to visualize total Tau protein and HP1β respectively. Representative images are shown. (B) Quantification of HP1β clusters per nuclei visualized as described previously and realized on three independent experiments. Data are mean±SD *P<0.05 ***P<0.001.
MCF7shctrl, MCF7shTau or transfected Hela cells with Tau4R and GFP-HP1α were fixed in 4% paraformaldehyde for 30 min at room temperature. Permeabilization was carried out in 0.2% Triton X-100 in phosphate-buffered saline for 10 min at room temperature. After 1 h saturation in 2% bovine serum albumin, immunostaining was performed using Tau antibody (recognizing the C-terminal domain of Tau). […] Nuclear staining was performed by adding 1/2000 DAPI in phosphate-buffered saline for 10 min. Slides were then analyzed with a Zeiss LSM710 confocal laser scanning microscope (60× magnification). Images were collected in the Z direction at 0.80 μm intervals and quantifications were realized using the Image J plug-in.
To this end, we first performed GST-pulldown analysis using purified core histones. As shown previously, Tau interacted specifically with core histones as detected by H3, H4, H2A and H2B antibodies (data not shown). […]

With `CC(/C=C/C(=O)NO)=C\[C@@H](C)C(=O)c1ccc(N(C)C)cc1` [TSA, 2,4-Heptadienamide, 7-[4-(dimethylamino)phenyl]-N-hydroxy-4,6-dimethyl-7-oxo-, (2E,4E,6R)-] as the compound, how does the “reduction of luciferase activity by Tau4R overexpression” value (“reduction of luciferase activity” for short) ([1]; 100 nM TSA, 24 h) read?
The value was “around 50%”.

And the “reduction of luciferase activity” value ([1]; 300 nM TSA, 24 h)?
Its value is “around 50%”.

What about the “reduction of luciferase activity” value ([1]; 600 nM TSA, 24 h) of the same compound?
Its value is “no reduction”.

What about the “reduction of TSA-induced luciferase activity in the presence of GAL-Tau4R” value ([1]; TSA 600 nM, 24 h, GAL4DBD-Tau4R transfected) of the same compound?
Its value is 50%.

What about the “lowest dose of TSA inducing maximal luciferase activity” value ([1]; preliminary experiments, Hela stable clone) of the same compound?
The value was 600 nM.

And the “number of HP1 clusters following TSA treatment” value [2]?
Its value is “decrease”.
